Patent US20240342179A1, “TREATMENT OF CANCERS OR NEOPLASMS BY INHIBITING KIF15” (University of Kansas, priority 2023, published 2024)

How the values were obtained:
KIF15 = KIF15 (Homo sapiens (Human), UniProt Q9NS87); conditions: read-out: median inhibitory concentration; cited from earlier work
KIF11 = KIF11 (Homo sapiens (Human), UniProt P52732); conditions: b18, cited from earlier work
[1] = system: ovarian cancer cell lines; conditions: 72 h
[2] = system: HIO-80, HIO-118, FT190, FT194; experiment: CellTiter Glo cell viability, immortalized non-tumorigenic cell lines; format: cell-based; conditions: control cell lines, 72 hours
[3] = system: ovarian cancer cell lines; experiment: cells; conditions: 72 h, read-out: IC50 cell viability

Chain of KIF11 (P52732 whole entry): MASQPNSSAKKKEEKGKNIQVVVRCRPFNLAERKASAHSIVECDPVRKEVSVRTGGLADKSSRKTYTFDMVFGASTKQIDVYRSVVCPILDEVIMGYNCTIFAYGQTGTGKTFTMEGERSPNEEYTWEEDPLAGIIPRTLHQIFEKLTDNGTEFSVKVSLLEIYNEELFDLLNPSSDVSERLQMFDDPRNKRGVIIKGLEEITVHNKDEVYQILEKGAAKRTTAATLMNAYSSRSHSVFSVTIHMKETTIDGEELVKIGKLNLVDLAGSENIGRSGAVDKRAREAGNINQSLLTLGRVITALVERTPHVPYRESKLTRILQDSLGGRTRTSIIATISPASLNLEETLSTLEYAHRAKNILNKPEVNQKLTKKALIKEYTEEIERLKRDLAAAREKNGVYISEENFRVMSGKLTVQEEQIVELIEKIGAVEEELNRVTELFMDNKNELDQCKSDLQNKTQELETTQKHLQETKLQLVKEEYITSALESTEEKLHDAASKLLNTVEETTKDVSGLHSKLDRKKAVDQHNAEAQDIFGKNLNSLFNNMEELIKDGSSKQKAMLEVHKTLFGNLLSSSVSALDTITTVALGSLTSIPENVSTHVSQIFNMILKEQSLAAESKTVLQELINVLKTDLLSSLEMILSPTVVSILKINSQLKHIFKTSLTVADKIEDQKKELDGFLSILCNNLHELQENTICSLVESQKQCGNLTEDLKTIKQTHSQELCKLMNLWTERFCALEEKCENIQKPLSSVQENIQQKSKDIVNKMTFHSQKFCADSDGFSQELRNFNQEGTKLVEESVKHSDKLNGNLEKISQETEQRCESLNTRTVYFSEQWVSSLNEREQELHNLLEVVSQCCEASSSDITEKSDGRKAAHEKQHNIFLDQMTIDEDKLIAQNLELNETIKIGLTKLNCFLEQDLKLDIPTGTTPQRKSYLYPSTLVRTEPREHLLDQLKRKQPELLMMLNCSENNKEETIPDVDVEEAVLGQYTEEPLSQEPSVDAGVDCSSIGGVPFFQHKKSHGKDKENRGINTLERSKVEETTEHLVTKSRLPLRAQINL
Chain of KIF15 (Q9NS87 whole entry): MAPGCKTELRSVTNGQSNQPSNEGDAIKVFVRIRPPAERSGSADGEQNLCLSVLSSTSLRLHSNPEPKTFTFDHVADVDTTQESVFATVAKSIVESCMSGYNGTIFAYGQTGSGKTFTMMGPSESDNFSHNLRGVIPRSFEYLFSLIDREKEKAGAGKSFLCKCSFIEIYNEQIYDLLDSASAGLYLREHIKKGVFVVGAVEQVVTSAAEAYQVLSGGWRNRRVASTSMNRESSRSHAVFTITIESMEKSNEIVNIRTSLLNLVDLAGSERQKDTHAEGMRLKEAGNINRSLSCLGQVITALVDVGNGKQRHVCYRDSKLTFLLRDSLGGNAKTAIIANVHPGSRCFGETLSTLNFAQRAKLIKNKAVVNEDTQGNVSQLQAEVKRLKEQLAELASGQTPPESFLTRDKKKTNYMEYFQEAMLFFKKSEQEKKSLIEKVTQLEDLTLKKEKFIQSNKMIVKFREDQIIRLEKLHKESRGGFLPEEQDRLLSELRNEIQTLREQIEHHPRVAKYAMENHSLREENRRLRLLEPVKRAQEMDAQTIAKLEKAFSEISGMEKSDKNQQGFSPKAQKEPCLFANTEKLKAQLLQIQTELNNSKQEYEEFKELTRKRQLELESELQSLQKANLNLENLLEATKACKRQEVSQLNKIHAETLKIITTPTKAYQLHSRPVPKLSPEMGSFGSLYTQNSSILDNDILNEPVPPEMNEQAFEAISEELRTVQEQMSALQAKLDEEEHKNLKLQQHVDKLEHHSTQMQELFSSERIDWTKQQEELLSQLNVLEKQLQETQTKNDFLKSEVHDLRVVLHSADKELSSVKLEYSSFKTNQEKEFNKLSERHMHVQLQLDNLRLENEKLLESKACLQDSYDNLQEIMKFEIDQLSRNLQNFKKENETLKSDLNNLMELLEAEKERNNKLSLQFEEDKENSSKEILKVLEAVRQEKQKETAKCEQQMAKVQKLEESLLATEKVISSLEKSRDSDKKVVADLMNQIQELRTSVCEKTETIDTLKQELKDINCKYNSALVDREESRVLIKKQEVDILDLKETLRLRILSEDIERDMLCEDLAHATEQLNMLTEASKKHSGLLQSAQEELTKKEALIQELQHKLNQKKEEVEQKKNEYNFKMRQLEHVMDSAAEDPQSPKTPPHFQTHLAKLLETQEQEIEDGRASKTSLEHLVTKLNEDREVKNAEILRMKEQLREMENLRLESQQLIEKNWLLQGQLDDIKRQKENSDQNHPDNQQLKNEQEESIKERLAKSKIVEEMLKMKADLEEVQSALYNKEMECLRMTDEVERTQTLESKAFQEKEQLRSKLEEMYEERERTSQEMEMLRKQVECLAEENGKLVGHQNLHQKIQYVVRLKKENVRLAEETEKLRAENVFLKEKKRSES

For `O=C1Nc2ccc(C(=O)c3ccco3)cc2/C1=C/c1cc(Cl)c(O)c(Cl)c1` [GW108X], the IC50 (KIF15) is given as 800 nM.
For `CON(C)C(=O)N1N=C(c2cc(F)ccc2F)S[C@@]1(CCCN)c1ccccc1` [filanesib], the Ki (KIF11; read-out: K values) is given as 6 nM.
With `Cc1ccc(C(=O)N(CCCN)[C@@H](c2nc3cc(Cl)ccc3c(=O)n2Cc2ccccc2)C(C)C)cc1` [ispinesib] the loss of viability [1] was “greater than 50%”, the IC50 [2] was 7.04 to 23.4 nM and the IC50 [3] was 1.07 to 15.8 nM.
In the case of `CCOC(=O)C1=C(C)NC(=S)NC1c1cccc(O)c1` (stereo not drawn) [monastrol], the “inhibit motor ATP hydrolysis” value (KIF11) is listed as 4.9 µM.
